ChEMBL document CHEMBL5291721, “A preclinical secondary pharmacology resource illuminates target-adverse drug reaction associations of marketed drugs” (Nat Commun, 2023)

Assays:
[1] = molecular target: T1, Alpha-1A adrenergic receptor (Homo sapiens, UniProt P35348); format: functional, cell-based
T1 sequence (P35348 whole entry): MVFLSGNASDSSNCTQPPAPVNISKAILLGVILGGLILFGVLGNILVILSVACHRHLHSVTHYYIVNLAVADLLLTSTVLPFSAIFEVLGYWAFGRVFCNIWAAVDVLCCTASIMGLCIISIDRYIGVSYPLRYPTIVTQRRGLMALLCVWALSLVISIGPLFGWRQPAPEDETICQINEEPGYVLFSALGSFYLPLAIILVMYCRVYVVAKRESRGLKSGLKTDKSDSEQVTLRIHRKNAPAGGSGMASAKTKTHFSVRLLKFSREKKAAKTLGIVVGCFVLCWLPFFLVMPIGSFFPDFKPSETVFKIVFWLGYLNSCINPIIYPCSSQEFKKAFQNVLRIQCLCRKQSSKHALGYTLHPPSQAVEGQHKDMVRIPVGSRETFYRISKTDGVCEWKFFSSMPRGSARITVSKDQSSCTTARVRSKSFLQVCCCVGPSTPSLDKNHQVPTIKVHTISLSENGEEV

[2] = molecular target: T2, Retinoic acid receptor alpha (Homo sapiens, UniProt P10276); format: functional, cell-based
T2 sequence (P10276 whole entry): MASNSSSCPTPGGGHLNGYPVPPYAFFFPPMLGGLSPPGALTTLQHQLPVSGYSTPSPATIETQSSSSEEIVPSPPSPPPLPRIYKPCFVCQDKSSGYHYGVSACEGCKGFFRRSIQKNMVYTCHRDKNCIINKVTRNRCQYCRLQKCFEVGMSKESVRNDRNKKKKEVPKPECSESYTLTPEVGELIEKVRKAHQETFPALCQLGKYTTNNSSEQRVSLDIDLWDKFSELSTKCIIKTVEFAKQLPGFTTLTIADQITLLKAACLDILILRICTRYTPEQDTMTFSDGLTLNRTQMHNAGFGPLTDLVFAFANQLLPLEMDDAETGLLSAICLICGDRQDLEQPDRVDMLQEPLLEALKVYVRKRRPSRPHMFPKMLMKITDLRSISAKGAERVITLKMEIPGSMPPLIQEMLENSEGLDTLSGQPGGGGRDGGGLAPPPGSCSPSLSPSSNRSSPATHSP

[3] = molecular target: T3, Retinoic acid receptor gamma (Homo sapiens, UniProt P13631); format: functional, cell-based
T3 sequence (P13631 whole entry): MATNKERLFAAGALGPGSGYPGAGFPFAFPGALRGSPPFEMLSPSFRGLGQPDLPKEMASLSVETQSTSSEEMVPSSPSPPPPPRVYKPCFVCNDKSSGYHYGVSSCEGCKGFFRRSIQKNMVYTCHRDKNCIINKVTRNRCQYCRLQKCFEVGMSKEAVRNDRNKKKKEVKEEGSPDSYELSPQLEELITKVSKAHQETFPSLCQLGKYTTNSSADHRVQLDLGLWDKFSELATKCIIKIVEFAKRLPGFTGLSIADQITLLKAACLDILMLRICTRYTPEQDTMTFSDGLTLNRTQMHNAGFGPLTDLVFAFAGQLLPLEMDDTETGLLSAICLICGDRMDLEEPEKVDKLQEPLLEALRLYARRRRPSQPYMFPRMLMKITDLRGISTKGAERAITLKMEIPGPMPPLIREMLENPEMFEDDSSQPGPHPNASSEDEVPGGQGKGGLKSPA

[4] = molecular target: T4, Prostaglandin G/H synthase 1 (Rattus norvegicus, UniProt Q63921); format: functional
T4 sequence (Q63921 whole entry): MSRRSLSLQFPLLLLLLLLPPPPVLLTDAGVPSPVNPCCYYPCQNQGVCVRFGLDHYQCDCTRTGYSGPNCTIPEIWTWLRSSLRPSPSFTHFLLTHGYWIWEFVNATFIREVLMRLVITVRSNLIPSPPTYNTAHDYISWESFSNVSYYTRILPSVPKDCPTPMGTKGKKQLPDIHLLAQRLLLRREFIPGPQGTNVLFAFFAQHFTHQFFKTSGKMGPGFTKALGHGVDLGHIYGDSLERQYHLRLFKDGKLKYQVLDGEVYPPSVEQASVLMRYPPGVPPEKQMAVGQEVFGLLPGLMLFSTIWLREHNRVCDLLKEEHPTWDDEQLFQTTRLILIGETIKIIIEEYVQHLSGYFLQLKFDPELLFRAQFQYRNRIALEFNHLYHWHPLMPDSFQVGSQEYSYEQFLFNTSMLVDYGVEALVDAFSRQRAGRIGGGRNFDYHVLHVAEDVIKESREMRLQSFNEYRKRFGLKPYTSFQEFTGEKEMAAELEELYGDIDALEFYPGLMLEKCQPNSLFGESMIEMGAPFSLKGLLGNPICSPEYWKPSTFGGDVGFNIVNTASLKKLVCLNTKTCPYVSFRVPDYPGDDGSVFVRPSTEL
Note: assay procedure not described here.

Question: How did the AC50 [1] turn out when `N=C(N)NC(=O)Cc1c(Cl)cccc1Cl` [GUANFACINE] was run?
Answer: 9.3 nM

Question: What does the source list for `CC(=O)N1CCN(c2ccc(OCC3COC(Cn4ccnc4)(c4ccc(Cl)cc4Cl)O3)cc2)CC1` (centres undefined) [KETOCONAZOLE]?
Answer: AC50 [2]: > 30000 nM; AC50 [3]: > 30000 nM

Question: For `COc1ccc(C(Cl)=C(c2ccc(OC)cc2)c2ccc(OC)cc2)cc1` [CHLOROTRIANISENE], which AC50 [4] is on record?
Answer: 78.2 nM
